Values quoted from earlier work, collected in patent US6403864B1, “Precursor polypeptide of a plant growth factor, a gene encoding a precursor polypeptide of a plant growth factor and a method for promotion of plant growth” (Nagoya University, priority 1999, dated 2002).
Where no end group is shown, it is not given here. [ ]: non-standard residue; d: D form. sY = N[C@@H](Cc1ccc(OS(=O)(=O)O)cc1)C(=O)O

Test system: plant cell
Settings: compared with PSK-α

For [sY]I[sY]T [PSK-β], the “Cell proliferation activity relative to PSK-α” value is listed as “less than one-tenth”.
